According to patent US20020160091A1, “Acesulfame salt, process for its preparation and its use” (priority 2001, published 2002):

Experiments:
[1] = known property named for comparison; cited from earlier work
[2] = known property named for comparison; cited from earlier work; remark: listed apart in the source
[3] = compared with acesulfame potassium salt

For `Cl.N` [ammonium chloride salt, ammonium chloride], the “salty-bitter taste (comparison salt)” value [1] is listed as “salty-bitter”.
For `CC1=CC(=O)NS(=O)(=O)O1.N` [acesulfame ammonium salt], the “difference found by the testers in extensive taste tests” value (acesulfame ammonium versus acesulfame potassium) was “no difference was found”, the sweet taste [3] was “exactly the same pleasant sweet taste as the acesulfame potassium salt” and the sweetening power [3] was “the same sweetening power as the acesulfame potassium salt”. The sweetness profile [3] was “exactly the same sweetness profile”.
In the case of `CC(=O)O.N` [ammonium acetate salt, ammonium acetate], the “hygroscopicity (comparison salt)” value [2] is given as “hygroscopic”.
